From paper PMC9535023, “Inhibition of phospholipase D1 induces immunogenic cell death and potentiates cancer immunotherapy in colorectal cancer” (Experimental & Molecular Medicine, 2022)
pIC50: −log10 of the molar value.

Experiments:
[1] = tested on: CRC cells; test: Measurement of extracellular ATP; format: cell-based
Experimental: For the quantitative determination of extracellular ATP, the cells were treated with Α3373. Extracellular release of ATP was assessed using the ENLITEN ATP Assay kit (Promega) according to the manufacturer’s instructions. For the HMGB1 level measurement, the supernatants of the cells were prepared by removing insoluble materials by centrifugation at 10,000 × g for 3 min at 4 °C. The levels of HMGB1 were measured using an HMGB1 detection kit (Chondrex) according to the manufacturer’s instructions.

[2] = tested on: HCT 116 cells; test: Immunoblotting of β-catenin and its target genes; format: cell-based; conditions: time- and dose-dependent, 1% serum
Experimental: As previously described, lysates from cells or colorectal cancer (CRC) tissues were analyzed by immunoprecipitation, and/or Western blotting was performed as described previously. The antibodies used are listed in Supplementary Table 5. A polyclonal anti-PLD antibody that recognizes both PLD1 and PLD2 was generated, as previously described. The use of human CRC tissue samples was approved by the Institutional Review Board of Pusan National University, Korea (PNU IRB/2011-6).

[3] = tested on: MC38 cells; test: MC38 syngeneic tumor model; format: in vivo, mouse
Experimental: manner. The incision was extended to 2–3 cm, and the cecum was exposed. 2 × 10^5 MC38-GFP-Luciferas e cells were suspended in 50 µL PBS and injected into the cecum. Seven days after cell injection, 10 mg/kg A3373 was orally administered to the mice daily for 4 weeks.
A colon can cer syngenei c model was established using 6- weeks-old C57B L/6 male mice. 2 × 10^5 MC38 cells were suspended in 50µ l PBS and subcutaneously injected into the flanks of the mice. After 7 days of cell injection, mice were randomized into four groups and all groups were treated as follows for 2 weeks: vehicle grou p, mice were IP administered vehicle every day; A3373 group, mice were IP administrated with 10 mg/kg A3373 every day; α PD-L1 antibody group, mice were IP administrated with 5 mg/kg anti-mouse PD-L1 (BioXcell) eve ry two days; A3373 + αPD-L1 antibody group, mice received A3373 (10 mg/kg) daily with anti - mouse PD-L1 (5 mg/kg) every 2 days. Tumor volume was measured in MC38 cells subcutaneous injected mice every 2 days after 7 days of cell injection. External tumor measurements were made using precision calipers, and tumor volume (TV) was calcul ated according to the following formula: TV = (W × L2)/2 (W = width and L = l ength).
. All animal procedu res were performed in accordance with the institutional guidelines for animal research and were approved by the Institutional Animal Care and Use Committee of Yonsei University (IACUC- […]
In a colon cancer orthotropic model, tumor-infiltrating lymphocytes (TILs) were isolated from the tumor tissue 30 days after cell injection. […]
After 20 minutes of incubation, 0.1 M EDTA was added to prevent clumping. Cells were filtered through a 40 µm nylon mesh, single-cell suspensions were counted and used for the experiments. […] Isolated tumor cells were cultured for one passage to change the immunocompromised phenotype and assessed using flow cytometry. […]

[4] = target: T1, PLD1 (Mus musculus, UniProt Q9Z280); test: PLD1 activity in Pld2−/− MEFs; format: cell-based
T1 construct: endogenous in cells; host or cells: immortalized Pld2-/- mouse embryonic fibroblasts
T1 sequence (Q9Z280 1-1074): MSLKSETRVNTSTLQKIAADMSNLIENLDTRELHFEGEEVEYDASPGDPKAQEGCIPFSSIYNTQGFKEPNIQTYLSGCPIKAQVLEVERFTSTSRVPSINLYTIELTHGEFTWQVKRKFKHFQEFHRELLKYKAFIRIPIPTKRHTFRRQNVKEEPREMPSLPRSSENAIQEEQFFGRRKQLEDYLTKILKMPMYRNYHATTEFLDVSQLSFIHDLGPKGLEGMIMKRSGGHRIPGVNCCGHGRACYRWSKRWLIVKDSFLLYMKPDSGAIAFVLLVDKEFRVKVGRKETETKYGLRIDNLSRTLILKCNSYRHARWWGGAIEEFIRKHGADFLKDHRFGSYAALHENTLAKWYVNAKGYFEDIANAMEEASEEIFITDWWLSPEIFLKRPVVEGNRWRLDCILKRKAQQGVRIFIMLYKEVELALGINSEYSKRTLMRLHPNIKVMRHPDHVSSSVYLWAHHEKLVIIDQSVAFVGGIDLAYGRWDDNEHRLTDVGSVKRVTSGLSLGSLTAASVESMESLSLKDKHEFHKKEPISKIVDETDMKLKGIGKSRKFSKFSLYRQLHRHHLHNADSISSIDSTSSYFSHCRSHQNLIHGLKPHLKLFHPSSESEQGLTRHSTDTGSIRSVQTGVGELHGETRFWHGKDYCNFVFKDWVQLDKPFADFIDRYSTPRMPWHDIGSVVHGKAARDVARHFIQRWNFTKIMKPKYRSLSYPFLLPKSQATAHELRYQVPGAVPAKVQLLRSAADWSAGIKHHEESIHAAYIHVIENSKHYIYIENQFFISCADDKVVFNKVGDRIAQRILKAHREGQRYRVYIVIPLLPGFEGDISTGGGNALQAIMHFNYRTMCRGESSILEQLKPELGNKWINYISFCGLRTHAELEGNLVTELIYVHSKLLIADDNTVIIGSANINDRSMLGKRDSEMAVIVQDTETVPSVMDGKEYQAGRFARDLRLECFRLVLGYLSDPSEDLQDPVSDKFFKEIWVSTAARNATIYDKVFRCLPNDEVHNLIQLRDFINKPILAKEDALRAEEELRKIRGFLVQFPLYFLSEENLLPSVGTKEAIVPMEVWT
Experimental: Cells were labeled with [H^3] myristic acid, and PLD activity was assessed by measuring the formation of [H^3] phosphatidylbutanol, which is the product of PLD-mediated transphosphatidylation, in the presence of 1-butanol, as previously described.
We further investigated the effect of A3373 on the enzymatic inhibition of PLD1 and PLD2 in Pld^+/+, Pld1^−/−, and Pld2^−/− MEFs. […] Kinase profiling was used to evaluate the general selectivity of the lead compounds. […] To further investigate whether inhibition of PLD1 by A3373 occurs by binding to PLD1, we first modified A3373 by adding biotinylation instead of the F present in its structure and measured PLD activity.

Q: `O=C(Nc1cc(C(F)(F)F)cc(C(F)(F)F)c1)c1cc2cc(F)ccc2[nH]1` [Compound A3373] was tested. Which “extracellular ATP, in words” value [1] did it give?
A: The value was “significantly increased extracellular ATP”.

Q: And the “protein levels of β-catenin and its target genes (PLD1, CD133, CD44, c-Myc, cyclin D1)” value [2]?
A: Its value is “greatly reduced the protein levels of β-catenin and its target genes”.

Q: And the tumor formation ([3]; A3373 10 mg/kg and/or αPD-L1)?
A: Its tumor formation is “significantly decreased tumor formation”.

Q: What about the “CD8+ T-cell-mediated killing of MC38-GFP-Luc cells, luciferase activity” value ([3]; CD8+ T cells from treated tumor-bearing mice, increasing E/T ratio) of the same compound?
A: Its value is “significant reduction in luciferase activity”.

Q: What about the “percentage of immune cells (CD45+ cells) in total cells” value ([3]; tumors at maximum volume, flow cytometry, vehicle ~20%) of the same compound?
A: The value was roughly 50%.

Q: And the “PLD1 activity, in words” value ([4]; 2 μM, Pld−/− MEFs)?
A: The value was “suppressed”.

Q: What about the pIC50 ([4]; Pld2−/− MEFs) of the same compound?
A: Its pIC50 is 6.49.
